The text below walks through data of US20140041337A1, “Food Packaging Method” (Kureha Corporation, priority 2007, published 2014).

The experiment concerns bacteria. The experiment can be described thus: Summary of bacterial counting, Tables 1 to 4. The experiment is classed as cell-based. Particulars: carbon dioxide gas 10 to 45 cm^3 per 100 g of the food (volume at 0° C. and 1 atm). Here is the method:
The bacteria counts were determined as follows. The sliced beef was diluted with a tenfold amount of sterile physiological saline to give a test liquid. One (1) ml of the test liquid was placed in sterile Petri dishes. For the viable bacteria count, a standard agar medium (manufactured by NISSUI PHARMACEUTICAL CO., LTD.) was added and the bacteria were cultured at 37° C. for 2 days. For the coliform bacteria count, a desoxycholate agar medium (manufactured by NISSUI PHARMACEUTICAL CO., LTD.) was added and the bacteria were cultured at 37° C. for 1 day. The colonies that grew were counted. The psychrophilic bacteria count was determined as follows. The sliced pork was diluted with a tenfold amount of sterile physiological saline to give a test liquid. One (1) ml of the test liquid was placed in sterile Petri dishes. A YGA agar medium (manufactured by NISSUI PHARMACEUTICAL CO., LTD.) was added and the bacteria were cultured at 10° C. for 5 days. The colonies that grew were counted.

On to `O=C=O` [carbon dioxide gas, carbon dioxide], for which the bacterial growth result is “inhibits bacterial growth”.
